Reference: US20230271954A1 (Gossamer Bio Services, Inc., priority 2020, published 2023)
Structures can show the parent of a compound that is named as a salt.

Columns and labels:
DGKζ = molecular target: T1, DGKζ (Homo sapiens, UniProt Q13574); assay: DGKζ biochemical assay (ADP-Glo); conditions: read-out: DGK ζ IC50
T1 construct: purchased Carna 12-110

DGKα = DGKα (Homo sapiens, UniProt P23743); assay: DGKα biochemical assay (ADP-Glo); conditions: read-out: DGK α IC50
Outline: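 ADP-Glo kinase assay using OAG/PS (1:2) lipid substrate, sonicated, in HEPES pH 7.0 buffer with MgCl2, CaCl2, DTT, BSA, Triton X-100. Enzyme preincubated with compound 30 min at RT; substrate with ATP (DGKα: 400 μM) added, 45 min RT. Luminescence read; % inhibition vs DMSO and no-enzyme controls.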

Chain of DGKα (P23743 whole entry): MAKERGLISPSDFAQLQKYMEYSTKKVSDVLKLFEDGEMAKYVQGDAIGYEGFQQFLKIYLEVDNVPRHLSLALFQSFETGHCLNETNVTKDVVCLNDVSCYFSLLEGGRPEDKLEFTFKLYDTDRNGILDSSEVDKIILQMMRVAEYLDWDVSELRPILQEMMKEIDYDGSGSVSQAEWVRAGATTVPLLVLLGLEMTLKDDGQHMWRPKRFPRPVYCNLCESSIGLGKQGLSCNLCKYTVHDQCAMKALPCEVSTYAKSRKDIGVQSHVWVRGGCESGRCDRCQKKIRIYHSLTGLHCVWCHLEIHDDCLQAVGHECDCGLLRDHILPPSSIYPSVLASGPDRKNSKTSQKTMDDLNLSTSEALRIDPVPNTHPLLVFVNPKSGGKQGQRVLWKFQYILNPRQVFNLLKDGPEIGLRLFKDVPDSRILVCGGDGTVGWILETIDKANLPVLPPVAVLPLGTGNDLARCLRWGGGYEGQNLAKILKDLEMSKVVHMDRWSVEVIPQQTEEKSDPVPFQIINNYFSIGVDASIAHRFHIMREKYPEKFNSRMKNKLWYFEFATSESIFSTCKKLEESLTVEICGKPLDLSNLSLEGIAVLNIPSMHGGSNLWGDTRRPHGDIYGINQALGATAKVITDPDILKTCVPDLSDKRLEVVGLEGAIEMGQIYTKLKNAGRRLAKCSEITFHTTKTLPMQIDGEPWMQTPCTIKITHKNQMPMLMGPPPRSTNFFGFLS
T1 sequence (Q13574 1-929 isoform Q13574-4): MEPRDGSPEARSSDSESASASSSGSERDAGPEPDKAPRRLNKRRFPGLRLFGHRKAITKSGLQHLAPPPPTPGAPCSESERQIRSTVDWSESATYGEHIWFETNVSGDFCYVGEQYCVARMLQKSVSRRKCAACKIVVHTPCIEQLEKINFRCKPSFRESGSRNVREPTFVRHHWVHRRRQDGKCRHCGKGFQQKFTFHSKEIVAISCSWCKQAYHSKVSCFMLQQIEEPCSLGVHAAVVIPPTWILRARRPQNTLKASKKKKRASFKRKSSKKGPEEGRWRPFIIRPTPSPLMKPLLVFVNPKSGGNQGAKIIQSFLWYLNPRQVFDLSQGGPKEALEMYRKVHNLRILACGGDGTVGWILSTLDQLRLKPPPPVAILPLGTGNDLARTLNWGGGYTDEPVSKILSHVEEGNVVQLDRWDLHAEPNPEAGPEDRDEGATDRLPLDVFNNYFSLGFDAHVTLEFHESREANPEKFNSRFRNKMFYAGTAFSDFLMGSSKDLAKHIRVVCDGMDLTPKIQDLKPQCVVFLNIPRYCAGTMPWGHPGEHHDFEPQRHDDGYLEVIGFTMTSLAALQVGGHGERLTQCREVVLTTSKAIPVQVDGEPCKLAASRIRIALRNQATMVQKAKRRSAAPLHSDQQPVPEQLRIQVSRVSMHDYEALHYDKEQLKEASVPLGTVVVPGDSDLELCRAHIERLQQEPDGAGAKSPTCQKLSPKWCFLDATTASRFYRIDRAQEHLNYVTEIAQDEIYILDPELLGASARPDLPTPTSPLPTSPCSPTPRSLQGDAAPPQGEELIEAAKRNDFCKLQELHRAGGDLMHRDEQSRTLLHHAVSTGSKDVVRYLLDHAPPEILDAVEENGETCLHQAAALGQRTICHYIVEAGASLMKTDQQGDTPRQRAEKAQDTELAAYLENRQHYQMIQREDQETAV

IC50 (DGKζ)	IC50 (DGKα)	SMILES
≥ 1000 nM	≥ 1000 nM	Cn1c(=O)c(C#N)c(N(C)[C@H]2CC[C@H](N(CC3CCC3)c3ccc(CCN4CCOCC4)cc3)CC2)c2nc(C#N)ccc21 [Example 172, trans-8-((4-((cyclobutylmethyl)(4-(2-morpholinoethyl)phenyl)amino)cyclohexyl)(methyl)amino)-5-methyl-6-oxo-5,6-dihydro-1,5-naphthyridine-2,7-dicarbonitrile]
100 to 1000 nM	100 to 1000 nM	Cc1cc(F)ccc1N(CC1COCCO1)[C@H]1CC[C@H](N(C)c2c(C#N)c(=O)n(C)c3ccc(C#N)nc23)CC1 (stereo partly drawn) [Example 173, trans-8-((4-(((1,4-dioxan-2-yl)methyl)(4-fluoro-2-methylphenyl)amino)cyclohexyl)(methyl)amino)-5-methyl-6-oxo-5,6-dihydro-1,5-naphthyridine-2,7-dicarbonitrile]
100 to 1000 nM	100 to 1000 nM	Cn1c(=O)c(C#N)c(N(C)[C@H]2CC[C@H](N(CC3CC3)c3ccc(F)c(CN4CCOCC4)c3)CC2)c2nc(C#N)ccc21 [Example 174, trans-8-((-4-((cyclopropylmethyl)(4-fluoro-3-(morpholinomethyl)phenyl)amino)cyclohexyl) (methyl)amino)-5-methyl-6-oxo-5,6-dihydro-1,5-naphthyridine-2,7-dicarbonitrile]
100 to 1000 nM	100 to 1000 nM	Cn1c(=O)cc(N(C)[C@H]2CC[C@@H](N(CC3CCC3)c3ccc(F)c(CN4CCOCC4)c3)CC2)c2nc(C#N)ccc21 [Example 175, cis-8-((-4-((cyclobutylmethyl)(4-fluoro-3-(morpholinomethyl)phenyl)amino)cyclohexyl) (methyl)amino)-5-methyl-6-oxo-5,6-dihydro-1,5-naphthyridine-2-carbonitrile]
≥ 1000 nM	≥ 1000 nM	CC(C)CN(c1ccnn1C)[C@H]1CC[C@H](N(C)c2c(C#N)c(=O)n(C)c3ccc(C#N)nc23)CC1 [Example 176, trans-8-((-4-(isobutyl(1-methyl-1H-pyrazol-5-yl)amino)cyclohexyl)(methyl)amino)-5-methyl-6-oxo-5,6-dihydro-1,5-naphthyridine-2,7-dicarbonitrile]
< 10 nM	< 10 nM	Cn1c(=O)c(C#N)c(N(C)[C@H]2CC[C@@H](N(CC3COCCO3)c3ccc4c(c3)OCO4)CC2)c2nc(C#N)ccc21 (stereo partly drawn) [Example 177, cis-8-((4-(((1,4-dioxan-2-yl)methyl)(benzo[d][1,3]dioxol-5-yl)amino)cyclohexyl)(methyl)amino)-5-methyl-6-oxo-5,6-dihydro-1,5-naphthyridine-2,7-dicarbonitrile]
100 to 1000 nM	100 to 1000 nM	Cc1cc(F)ccc1N(CC1CC(F)(F)C1)[C@H]1CC[C@H](N(C)c2c(C#N)c(=O)n(C)c3ccc(C#N)nc23)CC1 [Example 178, trans-8-((-4-(((3,3-difluorocyclobutyl)methyl)(4-fluoro-2-methylphenyl)amino)cyclohexyl)(methyl)amino)-5-methyl-6-oxo-5,6-dihydro-1,5-naphthyridine-2,7-dicarbonitrile]
≥ 1000 nM	10 to 100 nM	Cn1c(=O)c(C#N)c(N(C)[C@H]2CC[C@H](N(CC3CCC3)c3ccc(F)cc3C(F)F)CC2)c2nc(C#N)ccc21 [Example 179, trans-8-((-4-((cyclobutylmethyl)(2-(difluoromethyl)-4-fluorophenyl)amino)cyclohexyl)(methyl)amino)-5-methyl-6-oxo-5,6-dihydro-1,5-naphthyridine-2,7-dicarbonitrile]
100 to 1000 nM	100 to 1000 nM	Cn1c(=O)c(C#N)c(N(C)[C@H]2CC[C@@H](N(CC3CCC3)c3ccc(F)cc3C(F)F)CC2)c2nc(C#N)ccc21 [Example 180, cis-8-((-4-((cyclobutylmethyl)(2-(difluoromethyl)-4-fluorophenyl)amino)cyclohexyl)(methyl)amino)-5-methyl-6-oxo-5,6-dihydro-1,5-naphthyridine-2,7-dicarbonitrile]
100 to 1000 nM	10 to 100 nM	Cn1c(=O)cc(N(C)[C@H]2CC[C@@H](N(CC3COCCO3)c3ccc4c(c3)OCO4)CC2)c2nc(C#N)ccc21 (stereo partly drawn) [Example 181, cis-8-((4-(((1,4-dioxan-2-yl)methyl)(benzo[d][1,3]dioxol-5-yl)amino)cyclohexyl)(methyl)amino)-5-methyl-6-oxo-5,6-dihydro-1,5-naphthyridine-2-carbonitrile]
< 10 nM	≥ 1000 nM	Cn1c(=O)c(C#N)c(N(C)[C@H]2CC[C@@H](N(CC3COCCO3)c3ccc4c(c3)OCCO4)CC2)c2nc(C#N)ccc21 (stereo partly drawn) [Example 182, cis-8-((4-(((1,4-dioxan-2-yl)methyl)(2,3-dihydrobenzo[b][1,4]dioxin-6-yl)amino)cyclohexyl) (methyl)amino)-5-methyl-6-oxo-5,6-dihydro-1,5-naphthyridine-2,7-dicarbonitrile]
100 to 1000 nM	100 to 1000 nM	Cn1c(=O)cc(N(C)[C@H]2CC[C@@H](N(CC3COCCO3)c3ccc4c(c3)OCCO4)CC2)c2nc(C#N)ccc21 (stereo partly drawn) [Example 183, cis-8-((4-(((1,4-dioxan-2-yl)methyl)(2,3-dihydrobenzo[b][1,4]dioxin-6-yl)amino)cyclohexyl) (methyl)amino)-5-methyl-6-oxo-5,6-dihydro-1,5-naphthyridine-2-carbonitrile]
10 to 100 nM	100 to 1000 nM	Cc1cc(F)ccc1N(CC1CC(F)(F)C1)[C@H]1CC[C@@H](N(C)c2cc(=O)n(C)c3ccc(C#N)nc23)CC1 [Example 184, cis-8-((-4-(((3,3-difluorocyclobutyl)methyl)(4-fluoro-2-methylphenyl)amino)cyclohexyl)(methyl)amino)-5-methyl-6-oxo-5,6-dihydro-1,5-naphthyridine-2-carbonitrile]
100 to 1000 nM	100 to 1000 nM	Cc1cc(F)ccc1N(CC1COCCN1C)[C@H]1CC[C@H](N(C)c2c(C#N)c(=O)n(C)c3ccc(C#N)nc23)CC1 (stereo partly drawn) [Example 185, trans-8-((-4-((4-fluoro-2-methylphenyl)((4-methylmorpholin-3-yl)methyl)amino)cyclohexyl) (methyl)amino)-5-methyl-6-oxo-5,6-dihydro-1,5-naphthyridine-2,7-dicarbonitrile]
≥ 1000 nM	100 to 1000 nM	Cc1cc(F)ccc1N(CC1CN(C)CCO1)[C@H]1CC[C@H](N(C)c2c(C#N)c(=O)n(C)c3ccc(C#N)nc23)CC1 (stereo partly drawn) [Example 186, trans-8-((-4-((4-fluoro-2-methylphenyl)((4-methylmorpholinium-2-yl)methyl)amino)cyclohexyl) (methyl)amino)-5-methyl-6-oxo-5,6-dihydro-1,5-naphthyridine-2,7-dicarbonitrile trifluoroacetate]
100 to 1000 nM	100 to 1000 nM	CN1C(=O)COc2ccc(N(CC3COCCO3)[C@H]3CC[C@@H](N(C)c4c(C#N)c(=O)n(C)c5ccc(C#N)nc45)CC3)cc21 (stereo partly drawn) [Example 187, cis-8-((4-(((1,4-dioxan-2-yl)methyl)(4-methyl-3-oxo-3,4-dihydro-2H-benzo[b][1,4]oxazin-6-yl)amino)cyclohexyl)(methyl)amino)-5-methyl-6-oxo-5,6-dihydro-1,5-naphthyridine-2,7-dicarbonitrile]
100 to 1000 nM	100 to 1000 nM	Cn1c(=O)cc(N(C)[C@H]2CC[C@@H](N(CC3COCCO3)c3ccc(F)c(OC(F)F)c3)CC2)c2nc(C#N)ccc21 (stereo partly drawn) [Example 188, cis-8-((-4-(((1,4-dioxan-2-yl)methyl)(3-(difluoromethoxy)-4-fluorophenyl)amino)cyclohexyl) (methyl)amino)-5-methyl-6-oxo-5,6-dihydro-1,5-naphthyridine-2-carbonitrile]
100 to 1000 nM	10 to 100 nM	Cn1c(=O)cc(N(C)[C@H]2CC[C@@H](N(CC3CC3)c3ccc4c(c3)COC4)CC2)c2nc(C#N)ccc21 [Example 192, cis-8-((4-((cyclopropylmethyl)(1,3-dihydroisobenzofuran-5-yl)amino)cyclohexyl) (methyl)amino)-5-methyl-6-oxo-5,6-dihydro-1,5-naphthyridine-2-carbonitrile]
≥ 1000 nM	≥ 1000 nM	Cn1c(=O)c(C#N)c(N(C)[C@H]2CC[C@@H](N(CC3CC3)c3ccc4c(c3)COC4)CC2)c2nc(C#N)ccc21 [Example 193, cis-8-((4-((cyclopropylmethyl)(1,3-dihydroisobenzofuran-5-yl)amino)cyclohexyl) (methyl)amino)-5-methyl-6-oxo-5,6-dihydro-1,5-naphthyridine-2,7-dicarbonitrile]
≥ 1000 nM	100 to 1000 nM	Cn1c(=O)cc(N(C)[C@H]2CC[C@@H](N(CC(C)(C)CO)c3ccc(F)cc3)CC2)c2nc(C#N)ccc21 [Example 194, cis-8-((-4-((4-fluorophenyl)(3-hydroxy-2,2-dimethylpropyl)amino)cyclohexyl)(methyl)amino)-5-methyl-6-oxo-5,6-dihydro-1,5-naphthyridine-2-carbonitrile]
≥ 1000 nM	100 to 1000 nM	CN1C(=O)COc2ccc(N(CC3CC3)[C@H]3CC[C@@H](N(C)c4cc(=O)n(C)c5ccc(C#N)nc45)CC3)cc21 [Example 197, cis-8-((4-((cyclopropylmethyl)(4-methyl-3-oxo-3,4-dihydro-2H-benzo[b][1,4]oxazin-6-yl)amino)cyclohexyl)(methyl)amino)-5-methyl-6-oxo-5,6-dihydro-1,5-naphthyridine-2-carbonitrile]
≥ 1000 nM	≥ 1000 nM	CN1C(=O)COc2ccc(N(CC3CC3)[C@H]3CC[C@@H](N(C)c4c(C#N)c(=O)n(C)c5ccc(C#N)nc45)CC3)cc21 [Example 198, cis-8-((4-((cyclopropylmethyl)(4-methyl-3-oxo-3,4-dihydro-2H-benzo[b][1,4]oxazin-6-yl)amino)cyclohexyl)(methyl)amino)-5-methyl-6-oxo-5,6-dihydro-1,5-naphthyridine-2,7-dicarbonitrile]
